Measurements as given in PubChem BioAssay (NCI).
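Method: 48-hour compound exposure of cells in 96-well plates, five concentrations, linear interpolation of endpoints. GI50: concentration for 50% inhibition of growth. TGI is the concentration that stops growth completely.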

Columns and labels:
Assay in all cases: NCI-60 cell line screen, 48 h
HS 578T breast = test system: HS 578T breast
MCF7 breast = test system: MCF7 breast
EKVX NSCLC = test system: EKVX NSCLC
NCI-H460 lung = test system: NCI-H460 lung
MDA-MB-231 breast = test system: MDA-MB-231 breast
DU-145 prostate = test system: DU-145 prostate
NCI-H522 lung = test system: NCI-H522 lung
MDA-MB-435 = test system: MDA-MB-435
CAKI-1 renal = test system: CAKI-1 renal
SK-MEL-5 melanoma = test system: SK-MEL-5 melanoma
NCI-H23 lung = test system: NCI-H23 lung
NCI/ADR-RES ovarian = test system: NCI/ADR-RES ovarian
HL-60(TB) leukemia = test system: HL-60(TB) leukemia
RXF 393 renal = test system: RXF 393 renal
SNB-75 CNS = test system: SNB-75 CNS
LOX IMVI melanoma = test system: LOX IMVI melanoma
SK-OV-3 ovarian = test system: SK-OV-3 ovarian
SF-539 CNS = test system: SF-539 CNS
MOLT-4 leukemia = test system: MOLT-4 leukemia
SR leukemia = test system: SR leukemia
SK-MEL-28 melanoma = test system: SK-MEL-28 melanoma
SK-MEL-2 melanoma = test system: SK-MEL-2 melanoma
KM12 colon = test system: KM12 colon
UACC-257 melanoma = test system: UACC-257 melanoma
OVCAR-8 ovarian = test system: OVCAR-8 ovarian
A549 NSCLC = test system: A549 NSCLC
SF-295 CNS = test system: SF-295 CNS
UACC-62 melanoma = test system: UACC-62 melanoma
K-562 leukemia = test system: K-562 leukemia
SNB-19 CNS = test system: SNB-19 CNS
CCRF-CEM leukemia = test system: CCRF-CEM leukemia
OVCAR-5 ovarian = test system: OVCAR-5 ovarian
HT29 colon = test system: HT29 colon
NCI-H226 lung = test system: NCI-H226 lung
IGROV1 ovarian = test system: IGROV1 ovarian
HCT-15 colon = test system: HCT-15 colon
UO-31 renal = test system: UO-31 renal
MALME-3M melanoma = test system: MALME-3M melanoma
SW-620 colon = test system: SW-620 colon
HCT-116 colon = test system: HCT-116 colon
A498 renal = test system: A498 renal
RPMI-8226 leukemia = test system: RPMI-8226 leukemia
OVCAR-4 ovarian = test system: OVCAR-4 ovarian
OVCAR-3 ovarian = test system: OVCAR-3 ovarian
SN12C renal = test system: SN12C renal
TK-10 renal = test system: TK-10 renal
SF-268 CNS = test system: SF-268 CNS
ACHN renal = test system: ACHN renal
786-0 renal = test system: 786-0 renal
HCC-2998 colon = test system: HCC-2998 colon
COLO 205 colon = test system: COLO 205 colon
U251 CNS = test system: U251 CNS
HOP-62 NSCLC = test system: HOP-62 NSCLC
M14 melanoma = test system: M14 melanoma
PC-3 prostate = test system: PC-3 prostate

COc1ccc2cc(C#Cc3ccc(-n4c(/C=C/c5cc(OC)c(OC)c(OC)c5)nc5ccccc5c4=O)c(C)c3)ccc2c1
GI50 (HS 578T breast): > 100 µM
TGI (HS 578T breast): > 100 µM
GI50 (MCF7 breast): 63.8 µM
TGI (MCF7 breast): > 100 µM
GI50 (EKVX NSCLC): 24.1 µM
TGI (EKVX NSCLC): > 100 µM
GI50 (NCI-H460 lung): 2.48 µM
TGI (NCI-H460 lung): > 100 µM
GI50 (MDA-MB-231 breast): 37 µM
TGI (MDA-MB-231 breast): > 100 µM
GI50 (DU-145 prostate): > 100 µM
TGI (DU-145 prostate): > 100 µM
GI50 (NCI-H522 lung): > 100 µM
TGI (NCI-H522 lung): > 100 µM
GI50 (MDA-MB-435): > 100 µM
TGI (MDA-MB-435): > 100 µM
GI50 (CAKI-1 renal): 4.91 µM
TGI (CAKI-1 renal): > 100 µM
GI50 (SK-MEL-5 melanoma): 1.85 µM
TGI (SK-MEL-5 melanoma): > 100 µM
GI50 (NCI-H23 lung): 40.5 µM
TGI (NCI-H23 lung): > 100 µM
GI50 (NCI/ADR-RES ovarian): > 100 µM
TGI (NCI/ADR-RES ovarian): > 100 µM
GI50 (HL-60(TB) leukemia): 0.686 µM
TGI (HL-60(TB) leukemia): > 100 µM
GI50 (RXF 393 renal): > 100 µM
TGI (RXF 393 renal): > 100 µM
GI50 (SNB-75 CNS): > 100 µM
TGI (SNB-75 CNS): > 100 µM
GI50 (LOX IMVI melanoma): 5.94 µM
TGI (LOX IMVI melanoma): > 100 µM
GI50 (SK-OV-3 ovarian): > 100 µM
TGI (SK-OV-3 ovarian): > 100 µM
GI50 (SF-539 CNS): > 100 µM
TGI (SF-539 CNS): > 100 µM
GI50 (MOLT-4 leukemia): 4.66 µM
TGI (MOLT-4 leukemia): > 100 µM
GI50 (SR leukemia): 0.395 µM
TGI (SR leukemia): > 100 µM
GI50 (SK-MEL-28 melanoma): > 100 µM
TGI (SK-MEL-28 melanoma): > 100 µM
GI50 (SK-MEL-2 melanoma): > 100 µM
TGI (SK-MEL-2 melanoma): > 100 µM
GI50 (KM12 colon): 4.3 µM
TGI (KM12 colon): > 100 µM
GI50 (UACC-257 melanoma): 6.24 µM
TGI (UACC-257 melanoma): > 100 µM
GI50 (OVCAR-8 ovarian): > 100 µM
TGI (OVCAR-8 ovarian): > 100 µM
GI50 (A549 NSCLC): > 100 µM
TGI (A549 NSCLC): > 100 µM
GI50 (SF-295 CNS): > 100 µM
TGI (SF-295 CNS): > 100 µM
GI50 (UACC-62 melanoma): 2.19 µM
TGI (UACC-62 melanoma): > 100 µM
GI50 (K-562 leukemia): 0.882 µM
TGI (K-562 leukemia): > 100 µM
GI50 (SNB-19 CNS): > 100 µM
TGI (SNB-19 CNS): > 100 µM
GI50 (CCRF-CEM leukemia): > 100 µM
TGI (CCRF-CEM leukemia): > 100 µM
GI50 (OVCAR-5 ovarian): > 100 µM
TGI (OVCAR-5 ovarian): > 100 µM
GI50 (HT29 colon): 3.41 µM
TGI (HT29 colon): > 100 µM
GI50 (NCI-H226 lung): > 100 µM
TGI (NCI-H226 lung): > 100 µM
GI50 (IGROV1 ovarian): > 100 µM
TGI (IGROV1 ovarian): > 100 µM
GI50 (HCT-15 colon): 1.22 µM
TGI (HCT-15 colon): > 100 µM
GI50 (UO-31 renal): > 100 µM
TGI (UO-31 renal): > 100 µM
GI50 (MALME-3M melanoma): 42.6 µM
TGI (MALME-3M melanoma): > 100 µM
GI50 (SW-620 colon): 17.2 µM
TGI (SW-620 colon): > 100 µM
GI50 (HCT-116 colon): 3.53 µM
TGI (HCT-116 colon): > 100 µM
GI50 (A498 renal): > 100 µM
TGI (A498 renal): > 100 µM
GI50 (RPMI-8226 leukemia): 0.821 µM
TGI (RPMI-8226 leukemia): > 100 µM
GI50 (OVCAR-4 ovarian): > 100 µM
TGI (OVCAR-4 ovarian): > 100 µM
GI50 (OVCAR-3 ovarian): 19.3 µM
TGI (OVCAR-3 ovarian): > 100 µM
GI50 (SN12C renal): > 100 µM
TGI (SN12C renal): > 100 µM
GI50 (TK-10 renal): > 100 µM
TGI (TK-10 renal): > 100 µM
GI50 (SF-268 CNS): > 100 µM
TGI (SF-268 CNS): > 100 µM
GI50 (ACHN renal): > 100 µM
TGI (ACHN renal): > 100 µM
GI50 (786-0 renal): > 100 µM
TGI (786-0 renal): > 100 µM
GI50 (HCC-2998 colon): > 100 µM
TGI (HCC-2998 colon): > 100 µM
GI50 (COLO 205 colon): 6.96 µM
TGI (COLO 205 colon): > 100 µM
GI50 (U251 CNS): 7.4 µM
TGI (U251 CNS): > 100 µM
GI50 (HOP-62 NSCLC): > 100 µM
TGI (HOP-62 NSCLC): > 100 µM
GI50 (M14 melanoma): 12.7 µM
TGI (M14 melanoma): > 100 µM

Cc1ncc([N+](=O)[O-])n1CCn1ccnc1[N+](=O)[O-]
TGI (HS 578T breast): > 100 µM
TGI (MCF7 breast): > 100 µM
TGI (EKVX NSCLC): > 100 µM
TGI (NCI-H460 lung): > 100 µM
TGI (NCI-H522 lung): > 100 µM
TGI (SK-MEL-5 melanoma): > 100 µM
TGI (NCI-H23 lung): > 100 µM
TGI (HL-60(TB) leukemia): > 100 µM
TGI (SNB-75 CNS): > 100 µM
TGI (SF-539 CNS): > 100 µM
TGI (MOLT-4 leukemia): > 100 µM
TGI (SR leukemia): > 100 µM
TGI (SK-MEL-28 melanoma): > 100 µM
TGI (SK-MEL-2 melanoma): > 100 µM
TGI (KM12 colon): > 100 µM
TGI (UACC-257 melanoma): > 100 µM
TGI (OVCAR-8 ovarian): > 100 µM
TGI (A549 NSCLC): > 100 µM
TGI (SF-295 CNS): > 100 µM
TGI (K-562 leukemia): > 100 µM
TGI (CCRF-CEM leukemia): > 100 µM
TGI (OVCAR-5 ovarian): > 100 µM
TGI (HT29 colon): > 100 µM
TGI (NCI-H226 lung): > 100 µM
TGI (HCT-15 colon): > 100 µM
TGI (PC-3 prostate): > 100 µM
TGI (MALME-3M melanoma): > 100 µM
TGI (SW-620 colon): > 100 µM
TGI (HCT-116 colon): > 100 µM
TGI (A498 renal): > 100 µM
TGI (RPMI-8226 leukemia): > 100 µM
TGI (OVCAR-3 ovarian): > 100 µM
TGI (SN12C renal): > 100 µM
TGI (TK-10 renal): 29 µM
TGI (SF-268 CNS): > 100 µM
TGI (ACHN renal): > 100 µM
TGI (786-0 renal): > 100 µM
TGI (HCC-2998 colon): > 100 µM
TGI (U251 CNS): > 100 µM
TGI (HOP-62 NSCLC): > 100 µM
